From publication PMC6474902, “Examination of novel 4-aminoquinoline derivatives designed and synthesized by a hybrid pharmacophore approach to enhance their anticancer activities” (Scientific Reports, 2019)
“Also recorded” adds a separate entry of the source. Read-outs that look alike come from different tables or passages of the source.

Legend:
184B5 = assay: SRB antiproliferative/antigrowth assay, non-cancer cells; assay type: cell-based, human; conditions: read-out: GI50 184B5
Experimental: (§1) The antigrowth effects of 4-piperazinylquinoline sulfonyl analogs on human breast tumor cells was initially evaluated using MDA-MB468 (a PTEN defective, EGFR positive breast adenocarcioma), MDA-MB231 (p53 and pRB mutated, triple-negative breast carcinoma), and MCF7 (p53+/−, invasive ductal breast carcinoma) cell lines. In addition, the cytotoxicity of all the compounds was also evaluated with the 184B5 and MCF10A non-cancer immortalized breast epithelial cell lines, to determine if these newly synthesized compounds have differential cytotoxic effects on cancer and non-cancer cells. The panel of three breast cancer cell lines with different genetic back ground and the well-studied two non-cancer immortalized breast cell lines would provide insights into the efficacy and toxicity of the test compounds in the different genetic background and at different stages of tumor development. The dose response of each cell line was established by determining the number of viable cells after 48 h of continuous drug treatment against seven different concentrations (100 µM to 0.0064 µM) of each compound. The reading of sulphorodamine B (SRB) staining is known to accurately reflect the level of total cellular macromolecules/cell growth/proliferation[6],[23]. […] The data for CQ and cisplatin were included as references. […] The differences in the GI50 values may be attributable to such factors as the nature of the sulfonyl group and the halogen substitution on the 7th position of the 4-piperazinylquinoline ring system, and the genetic and biochemical background of the cell lines.
(§2) Antiproliferative/antigrowth effects were determined by a SRB-based protocol[6],[23]. For a typical screening experiment, 5,000–10,000 cells were inoculated into 100 µL medium per well of a 96-well microtiter plate as described previously. Briefly, after the inoculation, the microtiter plate was incubated at 37 °C, 5% CO2, 95% air and 100% relative humidity for 24 h, prior to addition of experimental drugs. Some of the sample wells were fixed with 25 µL of 50% tricholoroacetic acid (TCA) as a control of the cell population for each cell line at the time of drug addition (Tz). An aliquot of the frozen stock was thawed and diluted to a desired final maximum test-concentration with complete medium. Two to ten-fold serial dilutions were made to provide a total of seven drug concentrations (and a control [C]). Following addition of drugs, the culture plate was incubated for additional 48 h. Cells were fixed in situ by slowly adding 25 µL of ice-cold 50% (w/v) TCA (final concentration, 10% TCA), and were then incubated for 60 min at 4 °C. The supernatant was discarded, and the plate was washed five times with tap water, followed by air-dry. 50 µL of SRB solution at 0.4% (w/v) in 1% acetic acid was added to each well, and the plate was incubated for >30 min at room temperature. Unbound SRB was removed by five washes with tap water, followed by air-drying. The cells “stained” with SRB were solubilized with 10 mM trizma base, and the absorbance was read on an automated plate reader at a wavelength of 515–564 nm. The relative growth rate (%) was calculated for each of the compound concentrations according to the following formula: (Ti−Tz)/(C−Tz)×100
(§3) In the formula, time zero (Tz), control growth (C), and OD for different concentration of tested compounds (Ti). The GI50 for each compound was obtained from a non-linear Sigmoidal dose-response (variable slope) curve which is fitted by GraphPad Prism v.4.03 software. Values were calculated for each of these parameters if the level of activity was reached. However, if the effect was not reached or was exceeded, the value for that parameter was expressed as greater or less than the maximum or minimum concentration tested.

MCF10A = assay: as above; assay type: cell-based, human; conditions: SRB, 48 h post-treatment, non-cancer breast epithelial cells, read-out: GI50 MCF10A
Experimental: as §1, §2, §3

[1] = test system: MDA-MB231, MDA-MB468, MCF7 breast cancer cells; 184B5 and MCF10A non-cancer breast cells; assay: SRB assay, panel of breast cancer and non-cancer breast cell lines; assay type: cell-based, human; conditions: judged from GI50 values of Table 1
Experimental: as §1, §2, §3

MCF7 = assay: SRB antiproliferative/antigrowth assay; assay type: cell-based, human; conditions: SRB, 48 h post-treatment, mean of triplicates of at least two experiments, read-out: GI50 MCF7
Experimental: as §1, §2, §3

MDA-MB468 = assay: SRB antiproliferative/antigrowth assay; assay type: cell-based, human; conditions: SRB, 48 h post-treatment, mean of triplicates of at least two experiments, read-out: GI50 MB468
Experimental: as §1, §2, §3

MDA-MB231 = assay: SRB antiproliferative/antigrowth assay; assay type: cell-based, human; conditions: for GI50: SRB, 48 h post-treatment, mean of triplicates of at least two experiments, read-out: GI50 MB231
Experimental: as §1, §2, §3

[2] = Homo sapiens, 184B5, 48 h, SRB, 48 h post-treatment, non-cancer breast epithelial cells

SMILES	preferential antigrowth effect on cancer versus non-cancer cells (in words) [1]	GI50 (184B5; [2]) [µM]	GI50 (MCF10A; Homo sapiens, MCF-10A, 48 h) [µM]	melting point [°C]	GI50 (MCF7; Homo sapiens, MCF7, 48 h) [µM]	GI50 (MDA-MB468; Homo sapiens, MDA-MB-468, 48 h) [µM]	GI50 (MDA-MB231; Homo sapiens, MDA-MB-231, 48 h) [µM]	other results
N.N.[Cl][Pt][Cl] [Cisplatin, reference compound]	similar							GI50 (184B5; SRB, 48 h post-treatment, non-cancer breast epithelial cells): 25.5 ± 0.4 µM; GI50 (MCF10A): 51.5 ± 0.9 µM; GI50 (MCF7): 25.8 ± 0.4 µM; GI50 (MDA-MB468): 31 ± 0.5 µM; GI50 (MDA-MB231): 23.7 ± 0.2 µM
Cc1ccc(S(=O)(=O)N2CCN(c3ccnc4cc(Cl)ccc34)CC2)cc1 [Compound 8, 7-Chloro-4-(4-tosylpiperazin-1-yl)quinoline]	effective and preferential antigrowth effects on cancer cells; also recorded: stronger antigrowth/antiproliferation activity against cancer cells than non-cancer cells	47.5 ± 0.9	44.4 ± 0.7	190 to 192	16.1 ± 0.6	28.8 ± 0.7	34.1 ± 0.7	
CN(C)c1cccc2c(S(=O)(=O)N3CCN(c4ccnc5cc(Cl)ccc45)CC3)cccc12 [Compound 14, 5-(4-(7-Chloroquinolin-4-yl)piperazin-1-ylsulfonyl)-N,N-dimethylnaphthalen-1-amine]	effective and preferential antigrowth effects on cancer cells; also recorded: stronger antigrowth/antiproliferation activity against cancer cells than non-cancer cells	28.3 ± 0.3	32.2 ± 0.3	145 to 147	22.3 ± 0.2	27.5 ± 0.7	35 ± 0.8	
CS(=O)(=O)N1CCN(c2ccnc3cc(C(F)(F)F)ccc23)CC1 [Compound 16, 4-(4-Methanesulfonyl-piperazin-1-yl)-7-trifluoromethyl-quinoline]	effective and preferential antigrowth effects on cancer cells; also recorded: stronger antigrowth/antiproliferation activity against cancer cells than non-cancer cells	93.9 ± 0.9	75.8 ± 0.8	116 to 118	25.6 ± 0.3	28.6 ± 0.7	44.4 ± 0.9	
O=[N+]([O-])c1cccc(S(=O)(=O)N2CCN(c3ccnc4cc(C(F)(F)F)ccc34)CC2)c1 [Compound 21, 4-[4-(3-Nitro-benzenesulfonyl)-piperazin-1-yl]-7-trifluoromethyl-quinoline]	effective and preferential antigrowth effects on cancer cells; also recorded: stronger antigrowth/antiproliferation activity against cancer cells than non-cancer cells	17.7 ± 0.2	15.4 ± 0.1	199 to 201	9.4 ± 0.3	18.6 ± 0.6	32.2 ± 0.6	
Cc1ccc(S(=O)(=O)NCCCNc2ccnc3cc(Cl)ccc23)cc1 [Compound 26, N-[3-(7-Chloro-quinolin-4-ylamino)-propyl]-4-methyl-benzenesulfonamide]	effective and preferential antigrowth effects on cancer cells; also recorded: stronger antigrowth/antiproliferation activity against cancer cells than non-cancer cells	9.6 ± 0.5	12.2 ± 0.6		5.2 ± 0.5	5.8 ± 0.4	6.2 ± 0.5	
O=[N+]([O-])c1ccc(S(=O)(=O)NCCCNc2ccnc3cc(Cl)ccc23)c([N+](=O)[O-])c1 [Compound 31, N-[3-(7-Chloro-quinolin-4-ylamino)-propyl]-2,4-dinitro-benzenesulfonamide]				238 to 240				GI50 (184B5; Homo sapiens, 184B5, 48 h): 9.1 ± 0.6 µM; GI50 (MCF10A; Homo sapiens, MCF-10A): 19.8 ± 0.9 µM; GI50 (MCF7; Homo sapiens, MCF7): 6.2 ± 0.3 µM; GI50 (MDA-MB468; Homo sapiens, MDA-MB-468): 7.4 ± 0.2 µM; increase in antigrowth activity against MDA-MB231 compared to mono nitro substituted compounds (30 and 39) (MDA-MB231): 1.7–2.3 fold; GI50 (MDA-MB231; Homo sapiens, MDA-MB-231): 8.9 ± 0.7 µM
CS(=O)(=O)NCCCNc1ccnc2cc(C(F)(F)F)ccc12 [Compound 34, N-[3-(7-Trifluoromethyl-quinolin-4-ylamino)-propyl]-methanesulfonamide]		59.5 ± 1.6	85 ± 1.2	171 to 173	25.3 ± 1.3	30.4 ± 1	55.9 ± 1.6	
O=S(=O)(NCCCNc1ccnc2cc(C(F)(F)F)ccc12)c1ccc(-c2ccccc2)cc1 [Compound 36, Biphenyl-4-sulfonic acid [3-(7-trifluoromethyl-quinolin-4-ylamino)-propyl]-amide]		2.8 ± 0.1	2.2 ± 0.3	110 to 112	3.6 ± 0.3	4.2 ± 0.2	6 ± 0.4	
O=S(=O)(NCCCNc1ccnc2cc(C(F)(F)F)ccc12)c1ccc(Cl)cc1 [Compound 37, 4-Chloro-N-[3-(7-trifluoromethyl-quinolin-4-ylamino)-propyl]-benzenesulfonamide]		7.6 ± 0.4	17.4 ± 0.1	70 to 72	5.4 ± 0.3	10.3 ± 0.6	12.8 ± 0.9	increase in potency on MDA-MB231 in comparison to methyl substituted compounds (25 and 34) (MDA-MB231): 3.5–4.4 fold
O=S(=O)(NCCCNc1ccnc2cc(C(F)(F)F)ccc12)c1ccc(Cl)cc1Cl [Compound 38, 2,4-Dichloro-N-[3-(7-trifluoromethyl-quinolin-4-ylamino)-propyl]-benzenesulfonamide]		3.2 ± 0.1	5.3 ± 0.3	117 to 119	5.2 ± 0.3	3.9 ± 0.1	7 ± 0.6	
O=[N+]([O-])c1cccc(S(=O)(=O)NCCCNc2ccnc3cc(C(F)(F)F)ccc23)c1 [Compound 39, 3-Nitro-N-[3-(7-trifluoromethyl-quinolin-4-ylamino)-propyl]-benzenesulfonamide]		8 ± 0.8	10.6 ± 0.9	98 to 100	8.3 ± 0.5	9.1 ± 0.6	15.7 ± 1	
CN(C)c1cccc2c(S(=O)(=O)NCCCNc3ccnc4cc(C(F)(F)F)ccc34)cccc12 [Compound 41, 5-Dimethylamino-naphthalene-1-sulfonic acid [3-(7-trifluoromethyl-quinolin-4-ylamino)-propyl]-amide]		3.7 ± 0.2	6.5 ± 0.3	199 to 201	7.7 ± 0.6	9.7 ± 0.3	14.2 ± 1	
